US11464770B2, “Anticancer pharmaceutical composition” (NATIONAL CANCER CENTER, priority 2016, dated 2022)
Like-named read-outs stand apart in the source and are kept apart here.

Experiments:
[1] = system: bladder cancer cell lines; test: Cell based assay, cell viability (CellTiter-Glo), bladder cancer cell lines
Procedure, shortened: (§1)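 Seed cells after trypsin-EDTA treatment, hold 24 h at constant temperature, then add compound to a final 0 to 2 μM. Culture 72 h more and measure viability via ATP detection.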

[2] = system: prostate cancer cell lines (e.g. DU145/TXR); test: Cell based assay, cell viability (CellTiter-Glo), prostate cancer cell lines; conditions: Homo sapiens, 72 hours treatment, final concentration 0 to 2 μM
Procedure, shortened: as §1

melanoma cell lines = test: Cell based assay, cell viability (CellTiter-Glo), melanoma cell lines; conditions: Homo sapiens; LOX-IMVI cell line
Procedure, shortened: as §1

liver cancer cell lines = test: Cell based assay, cell viability (CellTiter-Glo), liver cancer cell lines; conditions: Homo sapiens, SK-HEP1; SK-HEP-1 cell line
Procedure, shortened: as §1

[3] = 253J cells, 72 hours treatment, 0 to 2 μM, CellTiter-Glo, read-out: IC50, bladder cancer cell line 253J
[4] = 5637 cells, 72 hours treatment, 0 to 2 μM, CellTiter-Glo, read-out: IC50, bladder cancer cell line 5637
[5] = Homo sapiens, T-24, T24 cells, 72 hours treatment, 0 to 2 μM, CellTiter-Glo, read-out: IC50, bladder cancer cell line T24
[6] = Homo sapiens, UMUC3, UM-UC-3 cells, 72 hours treatment, 0 to 2 μM, CellTiter-Glo, read-out: IC50, bladder cancer cell line UM-UC-3
[7] = Homo sapiens, J82 cells, 72 hours treatment, 0 to 2 μM, CellTiter-Glo, read-out: IC50, bladder cancer cell line J82
[8] = Homo sapiens, KU-19-19 cells, 72 hours treatment, 0 to 2 μM, CellTiter-Glo, read-out: IC50, bladder cancer cell line KU-19-19
[9] = MBT-2 cells, 72 hours treatment, 0 to 2 μM, CellTiter-Glo, read-out: IC50, bladder cancer cell line MBT-2
[10] = CWR22 cells, read-out: IC50, prostate cancer cell line CWR22
[11] = DU-145, DU145/TXR cells, read-out: IC50, prostate cancer cell line DU145/TXR
[12] = DU-145, DU145 cells, read-out: IC50, prostate cancer cell line DU145
[13] = LNcap cells, read-out: IC50, prostate cancer cell line LNcap
[14] = PC-3 cells, read-out: IC50, prostate cancer cell line PC-3

SMILES	IC50 [1, 3]	IC50 [1, 4]	IC50 [1, 5]	IC50 [1, 6]	IC50 [1, 7]	IC50 [1, 8]	IC50 [1, 9]	IC50 [2, 10]	IC50 [2, 11]	IC50 [2, 12]	IC50 [2, 13]	IC50 [2, 14]	IC50 (melanoma cell lines)	IC50 (liver cancer cell lines)	IC50 ([1]; 253J cells, 72 hours, cell viability (CellTiter-Glo), read-out: IC50, 253J bladder cancer cell line)	IC50 ([1]; 5637 cells, 72 hours, cell viability (CellTiter-Glo), read-out: IC50, 5637 bladder cancer cell line)	IC50 ([1]; Homo sapiens, T-24, T24 cells, 72 hours, cell viability (CellTiter-Glo), read-out: IC50, T24 bladder cancer cell line)	IC50 ([1]; Homo sapiens, J82 cells, 72 hours, cell viability (CellTiter-Glo), read-out: IC50, J82 bladder cancer cell line)
CC(=O)c1c([S+](C)[O-])n(Cc2ccc(F)c(Cl)c2)c2c(Br)ccc(Cl)c2c1=O (stereo not shown) [Compound 22, 3-acetyl-8-bromo-5-chloro-1-(3-chloro-4-fluorobenzyl)-2-(methylsulfinyl)quinolin-4(1H)-one]	> 2000 nM	> 2000 nM	> 2000 nM	> 2000 nM	> 2000 nM	> 2000 nM	> 2000 nM	> 2000 nM	> 2000 nM	> 2000 nM	> 2000 nM	> 2000 nM	> 2000 nM	> 2000 nM				
CC(=O)c1c(SC(C)C)[nH]c2c(Br)ccc(Cl)c2c1=O [Compound 24, 3-acetyl-8-bromo-5-chloro-2-(isopropylthio)quinolin-4(1H)-one]	> 2000 nM	> 2000 nM	> 2000 nM	> 2000 nM	> 2000 nM	> 2000 nM	> 2000 nM	> 2000 nM	> 2000 nM	> 2000 nM	> 2000 nM	> 2000 nM	> 2000 nM	> 2000 nM				
CC(=O)c1c([S+](C)[O-])n(S(=O)(=O)c2ccc(C(C)(C)C)cc2)c2c(Br)ccc(Cl)c2c1=O (stereo not shown) [Compound 42, 3-acetyl-8-bromo-1-((4-(tert-butyl)phenyl)sulfonyl)-5-chloro-2-(methylsulfinyl)quinolin-4(1H)-one]	> 2000 nM	> 2000 nM	> 2000 nM	1890 nM	> 2000 nM	> 2000 nM	> 2000 nM	> 2000 nM	> 2000 nM	> 2000 nM	> 2000 nM	> 2000 nM	> 2000 nM	> 2000 nM				
CC(=O)c1c([S+](C)[O-])n(S(=O)(=O)C(F)(F)F)c2c(Br)ccc(Cl)c2c1=O (stereo not shown) [Compound 36, 3-acetyl-8-bromo-5-chloro-2-(methylsulfinyl)-1-((trifluoromethyl)sulfonyl)quinolin-4(1H)-one]	> 2000 nM	> 2000 nM	> 2000 nM	> 2000 nM	> 2000 nM	> 2000 nM	1280 nM	> 2000 nM	> 2000 nM	> 2000 nM	> 2000 nM	> 2000 nM	> 2000 nM	> 2000 nM				
CSc1[nH]c2c(Br)ccc(Cl)c2c(=O)c1C(C)=O [Compound 2, 3-acetyl-8-bromo-5-chloro-2-(methylthio)quinolin-4(1H)-one]	> 2000 nM	> 2000 nM	> 2000 nM	> 2000 nM	> 2000 nM	> 2000 nM	> 2000 nM	> 2000 nM	> 2000 nM	> 2000 nM	> 2000 nM	> 2000 nM	> 2000 nM	> 2000 nM				
CSc1c(C(C)=O)c(=O)c2c(Cl)ccc(Br)c2n1S(=O)(=O)c1ccc(Cl)cc1 [Compound 37, 3-acetyl-8-bromo-5-chloro-1-((4-chlorophenyl)sulfonyl)-2-(methylthio)quinolin-4(1H)-one]	> 2000 nM	> 2000 nM	> 2000 nM	> 2000 nM	> 2000 nM	> 2000 nM	> 2000 nM	> 2000 nM	> 2000 nM	> 2000 nM	> 2000 nM	> 2000 nM	> 2000 nM	> 2000 nM				
Cc1cc(C[S+]([O-])c2[nH]c3c(Cl)ccc(Cl)c3c(=O)c2C(=O)C2CC2)no1 (stereo not shown) [Compound 97, 5,8-dichloro-3-(cyclopropanecarbonyl)-2-(((5-methylisoxazol-3-yl)methyl)sulfinyl)quinolin-4(1H)-one]		1910 nM			> 2000 nM			1480 nM	1500 nM	1280 nM	> 2000 nM	1700 nM	1030 nM	1070 nM				
COc1cccc2[nH]c([S+]([O-])Cc3ccc(S(F)(F)(F)(F)F)cc3)c(C(C)=O)c(=O)c12 (stereo not shown) [Compound 93, 3-acetyl-5-methoxy-2-((4-(pentafluoro--sulfanyl)benzyl)sulfinyl)quinolin-4(1H)-one]	> 2000 nM	> 2000 nM	> 2000 nM		> 2000 nM			> 2000 nM	> 2000 nM	> 2000 nM	> 2000 nM		> 2000 nM	> 2000 nM				
CC(=O)c1c(SCc2ccccc2)nc2c(Br)ccc(Cl)c2c1O [Compound 52, 1-(2-(benzylthio)-8-bromo-5-chloro-4-hydroxyquinolin-3-yl)ethan-1-one]	> 2000 nM	> 2000 nM	> 2000 nM	> 2000 nM	> 2000 nM	> 2000 nM	> 2000 nM	> 2000 nM	> 2000 nM	> 2000 nM	> 2000 nM	> 2000 nM	> 2000 nM	> 2000 nM				
CC(=O)c1c([S+]([O-])Cc2ccccc2)n(C(=O)c2ccc(Br)cc2)c2c(Br)ccc(Cl)c2c1=O (stereo not shown) [Compound 20, 3-acetyl-2-(benzylsulfinyl)-8-bromo-1-(4-bromobenzoyl)-5-chloroquinolin-4(1H)-one]	> 2000 nM	> 2000 nM	> 2000 nM	> 2000 nM	> 2000 nM	> 2000 nM	> 2000 nM	> 2000 nM	> 2000 nM	> 2000 nM	> 2000 nM	> 2000 nM	> 2000 nM	> 2000 nM				
CC(=O)c1c([S+](C)[O-])n(C(C)=O)c2c(Br)ccc(Cl)c2c1=O (stereo not shown) [Compound 19, 1,1′-(8-bromo-5-chloro-2-(methylsulfinyl)-4-oxoquinoline-1,3(4H)-diyl)bis(ethan-1-one)]	> 2000 nM	> 2000 nM	> 2000 nM	> 2000 nM	> 2000 nM	> 2000 nM	> 2000 nM	> 2000 nM	> 2000 nM	> 2000 nM	> 2000 nM	> 2000 nM	> 2000 nM	> 2000 nM				
CC(=O)c1c([S+]([O-])Cc2cnc3[nH]ccc3c2)[nH]c2c(Br)ccc(Cl)c2c1=O (stereo not shown) [Compound 107, 2-(((1H-pyrrolo[2,3-b]pyridin-5-yl)methyl)sulfinyl)-3-acetyl-8-bromo-5-chloroquinolin-4(1H)-one]								> 2000 nM	> 2000 nM	> 2000 nM	> 2000 nM		> 2000 nM	> 2000 nM	> 2000 nM	> 2000 nM	> 2000 nM	> 2000 nM
CC(=O)c1c([S+]([O-])CC#N)[nH]c2c(Br)ccc(Cl)c2c1=O (stereo not shown) [Compound 65, 2-((3-acetyl-8-bromo-5-chloro-4-oxo-1,4-dihydroquinolin-2-yl)sulfinyl)acetonitrile]	> 2000 nM	> 2000 nM	> 2000 nM	> 2000 nM	> 2000 nM	> 2000 nM	> 2000 nM	> 2000 nM	> 2000 nM	> 2000 nM	> 2000 nM	> 2000 nM	> 2000 nM	> 2000 nM				
CC(=O)c1c([S+]([O-])Cc2ccc(-n3cccn3)nc2)[nH]c2c(Br)ccc(Cl)c2c1=O (stereo not shown) [Compound 99, 2-(((6-(1H-pyrazol-1-yl)pyridin-3-yl)methyl)sulfinyl)-3-acetyl-8-bromo-5-chloroquinolin-4(1H)-one]	800 nM	1620 nM	850 nM		1500 nM			1240 nM	1060 nM	970 nM	> 2000 nM	1510 nM	870 nM	1060 nM				
CC(=O)c1c(SCC#N)[nH]c2c(Br)ccc(Cl)c2c1=O [Compound 66, 2-((3-acetyl-8-bromo-5-chloro-4-oxo-1,4-dihydroquinolin-2-yl)thio)acetonitrile]	> 2000 nM	> 2000 nM	> 2000 nM	> 2000 nM	> 2000 nM	> 2000 nM	> 2000 nM	> 2000 nM	> 2000 nM	> 2000 nM	> 2000 nM	> 2000 nM	> 2000 nM	> 2000 nM				
Cc1cc(C[S+]([O-])c2[nH]c3c(Br)ccc(Cl)c3c(=O)c2C(=O)C2CC2)no1 (stereo not shown) [Compound 96, 8-bromo-5-chloro-3-(cyclopropanecarbonyl)-2-(((5-methylisoxazol-3-yl)methyl)sulfinyl)quinolin-4(1H)-one]		> 2000 nM	1660 nM		> 2000 nM			1900 nM	1770 nM	1740 nM	> 2000 nM	> 2000 nM	> 2000 nM	1960 nM				
CC(=O)c1c(S(C)(=O)=O)n(S(=O)(=O)c2ccc(C(C)(C)C)cc2)c2c(Br)ccc(Cl)c2c1=O [Compound 41, 3-acetyl-8-bromo-1-((4-(tert-butyl)phenyl)sulfonyl)-5-chloro-2-(methylsulfonyl)quinolin-4(1H)-one]	> 2000 nM	> 2000 nM	> 2000 nM	> 2000 nM	> 2000 nM	> 2000 nM	> 2000 nM	> 2000 nM	> 2000 nM	> 2000 nM	> 2000 nM	> 2000 nM	> 2000 nM	> 2000 nM				
CSc1c(C(C)=O)c(=O)c2c(Cl)ccc(Br)c2n1S(C)(=O)=O [Compound 35, 3-acetyl-8-bromo-5-chloro-1-(methylsulfonyl)-2-(methylthio)quinolin-4(1H)-one]	> 2000 nM	> 2000 nM	> 2000 nM	> 2000 nM	> 2000 nM	> 2000 nM	> 2000 nM	> 2000 nM	> 2000 nM	> 2000 nM	> 2000 nM	> 2000 nM	> 2000 nM	> 2000 nM				
